Earlier results in US10646464B2, “Methods for treating cancer” (Boston Biomedical, Inc., priority 2017, dated 2020).

What was measured:
[1] = system: patients with advanced, previously treated pancreatic adenocarcinoma; details: weekly paclitaxel alone, previously reported
Stat3 pathway = details: read-out: inhibits Stat3 pathway activity, cellular IC50

Row | IC50 (Stat3 pathway) [nM] | SMILES | median overall survival (mOS) [1]
1 | – | CC(=O)O[C@H]1C(=O)[C@@]2(C)[C@H]([C@H](OC(=O)c3ccccc3)[C@]3(O)C[C@H](OC(=O)[C@H](O)[C@@H](NC(=O)c4ccccc4)c4ccccc4)C(C)=C1C3(C)C)[C@]1(OC(C)=O)CO[C@@H]1C[C@@H]2O [paclitaxel] | about 17.5 weeks
2 | ~250 | CC(=O)c1cc2c(o1)C(=O)c1ccccc1C2=O [2-acetylnaphtho[2,3-b]furan-4,9-dione] | –
